The source of these data is patent US6423749B1, “Pharmaceutical composition for injection based on paracetamol” (Aziende Chimiche Riunite Angelini Francesco A.C.R.A.F. …, priority 1998, dated 2002).

A short description of data set [1]: Solubility of paracetamol, HPLC analysis of supernatant after centrifugation. The data set is classed as physicochemical. The settings on record: stirred 2 hours at room temperature. On the procedure: The PEG400 was added to the paracetamol at room temperature. This mixture was then kept stirring at room temperature for 2 hours.
4 ml of the above-mentioned suspension were centrifuged in an Eppendorf tube at 25° C. for 30 minutes at a speed of 7,000 rpm.
The absolute ethanol was added to the paracetamol at room temperature. This mixture was then kept stirring at room temperature for 2 hours.
4 ml of the above-mentioned suspension were centrifuged in an Eppendorf tube at 4° C. for 40 minutes at a speed of 7,000 rpm.

For data set [2] the following is noted: cited from earlier work.

With `CC(=O)Nc1ccc(O)cc1` [paracetamol], the “solubility of the paracetamol” value in data set [1] (in PEG-400, centrifuged at 25° C. for 30 minutes) is given as 18-19%; in data set [1] (in absolute ethanol, centrifuged at 4° C. for 40 minutes), 9-10%. Besides, the “amount of paracetamol dissolved” value in data set [2] (30% propylene glycol, 40% PEG400 and 30% water, 20° C., WO 98/05314) is “about 200 mg/ml”. In addition, the solubility in water result in data set [2] (water, The Merck Index, 12th edition) is listed as “very slightly soluble”.
